Data from ChEMBL document CHEMBL1687836, “Oral hexadecyloxypropyl-cidofovir therapy in pregnant guinea pigs improves outcome in the congenital model of cytomegalovirus infection” (Antimicrob Agents Chemother, 2011).
Active and inactive are the calls of the source. The rule behind the calls is not given here.

Legend:
[1] = tested on: Cavia porcellus; assay: Toxicity in Guinea pig cytomegalovirus strain 22122 infected second and third trimesters of pregnant Hartley guinea pig assessed as decreased animal activity at 20 mg/kg, po once at 24 hrs post infection and once 7 days post infection; type: organism-based; design: dose 20 mg/kg, route oral; details: in vivo
[2] = tested on: Caviid betaherpesvirus 2; assay: Antiviral activity against Guinea pig cytomegalovirus strain 22122 infected in second and third trimesters of pregnant Hartley guinea pig assessed as dam liver with detectable viral DNA at 4 mg/kg, po qd for 5 days measured 10 days post infection by real-time PCR (reference value: 100%); type: functional
[3] = tested on: Caviid betaherpesvirus 2; assay: (§1) Antiviral activity against Guinea pig cytomegalovirus strain 22122 infected in second and third trimesters of pregnant Hartley guinea pig assessed as fetus spleen viral log10 genome copies/ug of DNA at 4 mg/kg, po qd for 9 days measured 10 days post infection by real-time PCR (reference value: 1.63 +/- 0.6 log10 genome copies/ug of DNA); type: functional
[4] = tested on: Cavia porcellus; assay: Toxicity in Guinea pig cytomegalovirus strain 22122 infected second and third trimesters of pregnant Hartley guinea pig assessed as low birth weight pups at 20 mg/kg, po once at 24 hrs post infection and once 7 days post infection (reference value: 107 +/- 10 g); type: organism-based; design: dose 20 mg/kg, route oral; details: in vivo
[5] = tested on: Caviid betaherpesvirus 2; assay: as §1, with “liver” for “spleen”, “5” for “9”, “2.20” for “1.63”; type: functional
[6] = tested on: Caviid betaherpesvirus 2; assay: Antiviral activity against Guinea pig cytomegalovirus strain 22122 infected in second and third trimesters of pregnant Hartley guinea pig assessed as pup liver containing detectable viral DNA at 20 mg/kg, po once at 24 hrs post infection and once at 7 days post infection (reference value: 73%); type: functional
[7] = tested on: Caviid betaherpesvirus 2; assay: as §1, with “dam liver” for “fetus spleen”, “4.82” for “1.63”, “0.8” for “0.6”; type: functional
[8] = tested on: Cavia porcellus; assay: Toxicity in Guinea pig cytomegalovirus strain 22122 infected second and third trimesters of pregnant Hartley guinea pig assessed as adverse effect on complete blood count at 4 mg/kg, po treatment started at 24 hrs post infection for 9 consecutive days; type: organism-based; design: dose 4 mg/kg, route oral; details: in vivo
[9] = tested on: Caviid betaherpesvirus 2; assay: as §1, with “dam” for “fetus”, “5” for “9”, “4.12” for “1.63”, “0.3” for “0.6”; type: functional
[10] = tested on: Caviid betaherpesvirus 2; assay: Antiviral activity against Guinea pig cytomegalovirus strain 22122 infected guinea pig CCL158 cells assessed as plaque reduction measured after 10 days by plaque reduction assay; type: functional, organism-based; details: Caviid betaherpesvirus 2, CCL158, 240 h
[11] = tested on: Caviid betaherpesvirus 2; assay: as §1, with “liver” for “spleen”, “2.20” for “1.63”; type: functional
[12] = tested on: Caviid betaherpesvirus 2; assay: as §1, with “5” for “9”; type: functional
[13] = tested on: Caviid betaherpesvirus 2; assay: Antiviral activity against Guinea pig cytomegalovirus strain 22122 infected in second and third trimesters of pregnant Hartley guinea pig assessed as reduction in viral DNA level in dam liver at 20 mg/kg, po once at 24 hrs post infection and once at 7 days post infection relative to dam control; type: functional
[14] = Selectivity index, ratio of CC50 for guinea pig CCL158 cells to IC50 for Guinea pig cytomegalovirus strain 22122; type: functional
[15] = tested on: Caviid betaherpesvirus 2; assay: Antiviral activity against Guinea pig cytomegalovirus strain 22122 infected in second and third trimesters of pregnant Hartley guinea pig assessed as dam placenta with detectable viral DNA at 4 mg/kg, po qd for 5 days measured 10 days post infection by real-time PCR (reference value: 100%); type: functional
[16] = tested on: Caviid betaherpesvirus 2; assay: Antiviral activity against Guinea pig cytomegalovirus strain 22122 infected in second and third trimesters of pregnant Hartley guinea pig assessed as fetus liver with detectable viral DNA at 4 mg/kg, po qd for 5 days measured 10 days post infection by real-time PCR (reference value: 87%); type: functional
[17] = tested on: Cavia porcellus; assay: Toxicity in Guinea pig cytomegalovirus strain 22122 infected second and third trimesters of pregnant Hartley guinea pig assessed as dam kidney toxicity at 4 mg/kg, po treatment started at 24 hrs post infection for 9 consecutive days; type: organism-based; design: dose 4 mg/kg, route oral; details: in vivo
[18] = tested on: Cavia porcellus; assay: Toxicity in Guinea pig cytomegalovirus strain 22122 infected second and third trimesters of pregnant Hartley guinea pig assessed as adverse effect on complete blood count in new born pups at 4 mg/kg, po treatment started at 24 hrs post infection for 9 consecutive days; type: organism-based; design: dose 4 mg/kg, route oral; details: in vivo
[19] = tested on: Cavia porcellus; assay: Toxicity in Guinea pig cytomegalovirus strain 22122 infected second and third trimesters of pregnant Hartley guinea pig assessed as dam liver toxicity at 4 mg/kg, po treatment started at 24 hrs post infection for 9 consecutive days; type: organism-based; design: dose 4 mg/kg, route oral; details: in vivo
[20] = tested on: Caviid betaherpesvirus 2; assay: Antiviral activity against Guinea pig cytomegalovirus strain 22122 infected in second and third trimesters of pregnant Hartley guinea pig assessed as reduction in viral DNA level in dam spleen at 20 mg/kg, po once at 24 hrs post infection and once at 7 days post infection relative to dam control; type: functional
[21] = tested on: Caviid betaherpesvirus 2; assay: Antiviral activity against Guinea pig cytomegalovirus strain 22122 infected in second and third trimesters of pregnant Hartley guinea pig assessed as reduction in dam viremia at 4 mg/kg, po qd for 5 days; type: functional, organism-based; design: dose 4 mg/kg; details: Guinea pig cytomegalovirus (strain 22122 / ATCC VR682) (GPCMV)
[22] = tested on: Cavia porcellus; assay: Toxicity in Guinea pig cytomegalovirus strain 22122 infected second and third trimesters of pregnant Hartley guinea pig assessed as pup kidney toxicity at 4 mg/kg, po treatment started at 24 hrs post infection for 9 consecutive days; type: organism-based; design: dose 4 mg/kg, route oral; details: in vivo
[23] = tested on: Caviid betaherpesvirus 2; assay: Antiviral activity against Guinea pig cytomegalovirus strain 22122 infected in second and third trimesters of pregnant Hartley guinea pig assessed as fetus spleen with detectable viral DNA at 4 mg/kg, po qd for 5 days measured 10 days post infection by real-time PCR (reference value: 47%); type: functional
[24] = tested on: Caviid betaherpesvirus 2; assay: Antiviral activity against Guinea pig cytomegalovirus strain 22122 infected in second and third trimesters of pregnant Hartley guinea pig assessed as reduction in viral DNA level in pup liver at 20 mg/kg, po once at 24 hrs post infection and once at 7 days post infection relative to control pup; type: functional
[25] = tested on: Caviid betaherpesvirus 2; assay: Antiviral activity against Guinea pig cytomegalovirus strain 22122 infected in second and third trimesters of pregnant Hartley guinea pig assessed as dam placenta with detectable viral DNA at 4 mg/kg, po qd for 9 days measured 10 days post infection by real-time PCR (reference value: 100%); type: functional
[26] = tested on: Caviid betaherpesvirus 2; assay: Antiviral activity against Guinea pig cytomegalovirus strain 22122 infected in second and third trimesters of pregnant Hartley guinea pig assessed as dam spleen with detectable viral DNA at 4 mg/kg, po qd for 9 days measured 10 days post infection by real-time PCR (reference value: 100%); type: functional
[27] = tested on: Cavia porcellus; assay: Toxicity in Guinea pig cytomegalovirus strain 22122 infected second and third trimesters of pregnant Hartley guinea pig assessed as decreased animal activity at 4 mg/kg, po treatment started at 24 hrs post infection for 5 consecutive days; type: organism-based; design: dose 4 mg/kg, route oral; details: in vivo
[28] = Cytotoxicity against guinea pig CCL158 cells after 10 days by crystal violet staining; type: cell-based, Cavia porcellus
[29] = tested on: Caviid betaherpesvirus 2; assay: Antiviral activity against Guinea pig cytomegalovirus strain 22122 infected in second and third trimesters of pregnant Hartley guinea pig assessed as pregnancy outcome measured as live-born pups at 4 mg/kg, po treatment started at 24 hrs post infection for 5 consecutive days (reference value: 62.5%); type: functional
[30] = tested on: Cavia porcellus; assay: Toxicity in Guinea pig cytomegalovirus strain 22122 infected second and third trimesters of pregnant Hartley guinea pig assessed as animal weight loss at 4 mg/kg, po treatment started at 24 hrs post infection for 5 consecutive days; type: organism-based; design: dose 4 mg/kg, route oral; details: in vivo
[31] = tested on: Cavia porcellus; assay: Toxicity in Guinea pig cytomegalovirus strain 22122 infected second and third trimesters of pregnant Hartley guinea pig assessed as pup liver toxicity at 4 mg/kg, po treatment started at 24 hrs post infection for 9 consecutive days; type: organism-based; design: dose 4 mg/kg, route oral; details: in vivo
[32] = tested on: Cavia porcellus; assay: Toxicity in Guinea pig cytomegalovirus strain 22122 infected second and third trimesters of pregnant Hartley guinea pig assessed as animal weight loss at 20 mg/kg, po once at 24 hrs post infection and once 7 days post infection; type: organism-based; design: dose 20 mg/kg, route oral; details: in vivo
[33] = tested on: Caviid betaherpesvirus 2; assay: Antiviral activity against Guinea pig cytomegalovirus strain 22122 infected in second and third trimesters of pregnant Hartley guinea pig assessed as pregnancy outcome measured as live-born pups at 20 mg/kg, po once at 24 hrs post infection and once 7 days post infection; type: functional
[34] = tested on: Cavia porcellus; assay: Toxicity in Guinea pig cytomegalovirus strain 22122 infected second and third trimesters of pregnant Hartley guinea pig assessed as low birth weight pups at 4 mg/kg, po treatment started at 24 hrs post infection for 5 consecutive days (reference value: 107 +/- 10 g); type: organism-based; design: dose 4 mg/kg, route oral; details: in vivo
[35] = tested on: Caviid betaherpesvirus 2; assay: as §1, with “dam” for “fetus”, “4.12” for “1.63”, “0.3” for “0.6”; type: functional
[36] = tested on: Caviid betaherpesvirus 2; assay: Antiviral activity against Guinea pig cytomegalovirus strain 22122 infected in second and third trimesters of pregnant Hartley guinea pig assessed as reduction in dam blood viral log10 genome copies/ug of DNA at 20 mg/kg, po once at 24 hrs post infection and once at 7 days post infection (reference value: 3.22 +/- 0.2 log10 genome copies/ug DNA); type: functional
[37] = tested on: Caviid betaherpesvirus 2; assay: Antiviral activity against Guinea pig cytomegalovirus strain 22122 infected in second and third trimesters of pregnant Hartley guinea pig assessed as reduction in viral DNA level in pup spleen at 20 mg/kg, po once at 24 hrs post infection and once at 7 days post infection relative to control pup; type: functional
[38] = tested on: Caviid betaherpesvirus 2; assay: as §1, with “dam liver” for “fetus spleen”, “5” for “9”, “4.82” for “1.63”, “0.8” for “0.6”; type: functional
[39] = tested on: Caviid betaherpesvirus 2; assay: Antiviral activity against Guinea pig cytomegalovirus strain 22122 infected in second and third trimesters of pregnant Hartley guinea pig assessed as reduction in pups with detectable viral DNA at 20 mg/kg, po once at 24 hrs post infection and once at 7 days post infection; type: functional, organism-based; design: dose 20 mg/kg; details: Guinea pig cytomegalovirus (strain 22122 / ATCC VR682) (GPCMV)
[40] = tested on: Caviid betaherpesvirus 2; assay: Antiviral activity against Guinea pig cytomegalovirus strain 22122 infected in second and third trimesters of pregnant Hartley guinea pig assessed as fetus liver with detectable viral DNA at 4 mg/kg, po qd for 9 days measured 10 days post infection by real-time PCR (reference value: 87%); type: functional
[41] = tested on: Caviid betaherpesvirus 2; assay: Antiviral activity against Guinea pig cytomegalovirus strain 22122 infected in second and third trimesters of pregnant Hartley guinea pig assessed as increase in pup survival at 20 mg/kg, po once at 24 hrs post infection and once at 7 days post infection; type: functional, organism-based; design: dose 20 mg/kg; details: Guinea pig cytomegalovirus (strain 22122 / ATCC VR682) (GPCMV)
[42] = tested on: Caviid betaherpesvirus 2; assay: Antiviral activity against Guinea pig cytomegalovirus strain 22122 infected in second and third trimesters of pregnant Hartley guinea pig assessed as pup spleen containing detectable viral DNA at 20 mg/kg, po once at 24 hrs post infection and once at 7 days post infection (reference value: 44%); type: functional
[43] = tested on: Caviid betaherpesvirus 2; assay: Antiviral activity against Guinea pig cytomegalovirus strain 22122 infected in second and third trimesters of pregnant Hartley guinea pig assessed as fetus spleen with detectable viral DNA at 4 mg/kg, po qd for 9 days measured 10 days post infection by real-time PCR (reference value: 47%); type: functional
[44] = tested on: Caviid betaherpesvirus 2; assay: Antiviral activity against Guinea pig cytomegalovirus strain 22122 infected in second and third trimesters of pregnant Hartley guinea pig assessed as dam spleen with detectable viral DNA at 4 mg/kg, po qd for 5 days measured 10 days post infection by real-time PCR (reference value: 100%); type: functional
[45] = tested on: Caviid betaherpesvirus 2; assay: Antiviral activity against Guinea pig cytomegalovirus strain 22122 infected in second and third trimesters of pregnant Hartley guinea pig assessed as dam liver with detectable viral DNA at 4 mg/kg, po qd for 9 days measured 10 days post infection by real-time PCR (reference value: 100%); type: functional

EC50 [10]: 4 nM
Compound: CCCCCCCCCCCCCCCCOCCCOP(=O)(O)CO[C@H](CO)Cn1ccc(N)nc1=O [BRINCIDOFOVIR]
Activity [1]: Non-toxic
Activity [2]: 100%
Activity [3]: 1.65
Activity [4]: 103 g
Activity [5]: 2.12
Activity [6]: 57%
Activity [7]: 3.01
Activity [8]: Non-toxic
Activity [9]: 2.77
Activity [11]: 1.87
Activity [12]: 1.91
fold change (FC) [13]: 6.5
Selectivity Index [14]: >25000
Activity [15]: 100%
Activity [16]: 92%
Activity [17]: Non-toxic
Activity [18]: Non-toxic
Activity [19]: Non-toxic
fold change (FC) [20]: 5
Activity [21]: Active
Activity [22]: Non-toxic
Activity [23]: 77%
fold change (FC) [24]: 10.5
Activity [25]: 100%
Activity [26]: 100%
Activity [27]: Non-toxic
CC50 at 240 h [28]: > 100000 nM
Activity [29]: 100%
Activity [30]: Non-toxic
Activity [31]: Non-toxic
Activity [32]: Non-toxic
Activity [33]: 93.8%
Activity [34]: 103 g
Activity [35]: 2.09
Activity [36]: 2.88
fold change (FC) [37]: 6
Activity [38]: 2.98
Activity [39]: Active
Activity [40]: 85%
Activity [41]: Active
Activity [42]: 25%
Activity [43]: 62%
Activity [44]: 100%
Activity [45]: 100%
